Measurements taken from PubChem BioAssay (NCI).
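1) Cells in 96-well plates. 2) Compound, 48 h, 5 concentrations. 3) Linear interpolation between surrounding doses. 4) Unreached endpoint = highest concentration. Here, GI50 denotes the concentration required for 50% inhibition of growth. At the TGI there is no net growth.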

Key:
Experiment in all cases: DTP human tumour cell line panel, 48 h
[1] = test system: 786-0 renal
[2] = test system: A498 renal
[3] = test system: A549 NSCLC
[4] = test system: ACHN renal
[5] = test system: BT-549 breast
[6] = test system: CAKI-1 renal
[7] = test system: CCRF-CEM leukemia
[8] = test system: COLO 205 colon
[9] = test system: DU-145 prostate
[10] = test system: EKVX NSCLC
[11] = test system: HCC-2998 colon
[12] = test system: HCT-116 colon
[13] = test system: HCT-15 colon
[14] = test system: HL-60(TB) leukemia
[15] = test system: HOP-62 NSCLC
[16] = test system: HOP-92 NSCLC
[17] = test system: HS 578T breast
[18] = test system: HT29 colon
[19] = test system: IGROV1 ovarian
[20] = test system: K-562 leukemia
[21] = test system: KM12 colon
[22] = test system: LOX IMVI melanoma
[23] = test system: M14 melanoma
[24] = test system: MALME-3M melanoma
[25] = test system: MCF7 breast
[26] = test system: MDA-MB-231 breast
[27] = test system: MDA-MB-435
[28] = test system: MOLT-4 leukemia
[29] = test system: NCI-H226 lung
[30] = test system: NCI-H23 lung
[31] = test system: NCI-H460 lung
[32] = test system: NCI-H522 lung
[33] = test system: NCI/ADR-RES ovarian
[34] = test system: OVCAR-3 ovarian
[35] = test system: OVCAR-4 ovarian
[36] = test system: OVCAR-5 ovarian
[37] = test system: OVCAR-8 ovarian
[38] = test system: PC-3 prostate
[39] = test system: RPMI-8226 leukemia
[40] = test system: RXF 393 renal
[41] = test system: SF-268 CNS
[42] = test system: SF-295 CNS
[43] = test system: SF-539 CNS
[44] = test system: SK-MEL-2 melanoma
[45] = test system: SK-MEL-28 melanoma
[46] = test system: SK-MEL-5 melanoma
[47] = test system: SK-OV-3 ovarian
[48] = test system: SN12C renal
[49] = test system: SNB-19 CNS
[50] = test system: SNB-75 CNS
[51] = test system: SR leukemia
[52] = test system: SW-620 colon
[53] = test system: T-47D breast
[54] = test system: TK-10 renal
[55] = test system: U251 CNS
[56] = test system: UACC-257 melanoma
[57] = test system: UACC-62 melanoma
[58] = test system: UO-31 renal

SMILES: COc1cc2c(c(OC)c1OC)-c1ccc(OC)c(=O)cc1[C@@H](NC(=O)CCl)CC2
- GI50 [1]: < 0.01 µM
- TGI [1]: 1.7 µM
- GI50 [2]: < 0.01 µM
- TGI [2]: 0.164 µM
- GI50 [3]: < 0.0141 µM
- TGI [3]: 25.6 µM
- GI50 [4]: 0.0295 µM
- TGI [4]: > 54.1 µM
- GI50 [5]: < 0.01 µM
- GI50 [6]: 0.0386 µM
- TGI [6]: 21.2 µM
- GI50 [7]: < 0.01 µM
- TGI [7]: > 33.3 µM
- GI50 [8]: < 0.01 µM
- TGI [8]: < 0.01 µM
- GI50 [9]: < 0.01 µM
- TGI [9]: < 0.01 µM
- GI50 [10]: < 0.0191 µM
- TGI [10]: 23.7 µM
- GI50 [11]: < 0.01 µM
- TGI [11]: 22.3 µM
- GI50 [12]: < 0.01 µM
- TGI [12]: 0.0157 µM
- GI50 [13]: 0.0308 µM
- TGI [13]: > 100 µM
- GI50 [14]: < 0.01 µM
- TGI [14]: < 0.0136 µM
- GI50 [15]: < 0.01 µM
- TGI [15]: 10.2 µM
- TGI [16]: 7.2 µM
- GI50 [17]: < 0.01 µM
- TGI [17]: > 100 µM
- GI50 [18]: < 0.01 µM
- TGI [18]: 10.1 µM
- GI50 [19]: < 0.01 µM
- TGI [19]: 21.9 µM
- GI50 [20]: < 0.01 µM
- TGI [20]: > 100 µM
- GI50 [21]: < 0.01 µM
- TGI [21]: 0.0521 µM
- GI50 [22]: < 0.01 µM
- GI50 [23]: < 0.01 µM
- TGI [23]: < 0.01 µM
- GI50 [24]: 2.51 µM
- TGI [24]: 26.5 µM
- GI50 [25]: < 0.01 µM
- TGI [25]: 17.4 µM
- GI50 [26]: < 0.01 µM
- TGI [26]: > 46 µM
- GI50 [27]: < 0.01 µM
- TGI [27]: < 0.01 µM
- GI50 [28]: < 0.01 µM
- TGI [28]: > 100 µM
- GI50 [29]: 0.0357 µM
- TGI [29]: 10.9 µM
- GI50 [30]: < 0.01 µM
- TGI [30]: > 33 µM
- GI50 [31]: < 0.01 µM
- TGI [31]: 0.585 µM
- GI50 [32]: < 0.01 µM
- TGI [32]: < 0.01 µM
- GI50 [33]: 0.142 µM
- TGI [33]: > 23.2 µM
- GI50 [34]: < 0.01 µM
- TGI [34]: < 0.01 µM
- GI50 [35]: < 0.01 µM
- TGI [35]: > 100 µM
- TGI [36]: 30.5 µM
- GI50 [37]: < 0.01 µM
- TGI [37]: > 33.6 µM
- GI50 [38]: < 0.01 µM
- TGI [38]: 30.9 µM
- GI50 [39]: < 0.01 µM
- TGI [39]: 15.8 µM
- GI50 [40]: < 0.01 µM
- TGI [40]: 19.5 µM
- GI50 [41]: < 0.01 µM
- TGI [41]: 3.53 µM
- GI50 [42]: < 0.01 µM
- TGI [42]: 0.0743 µM
- GI50 [43]: < 0.01 µM
- TGI [43]: 23.7 µM
- GI50 [44]: < 0.01 µM
- TGI [44]: 10.3 µM
- GI50 [45]: 0.304 µM
- TGI [45]: 53.8 µM
- GI50 [46]: < 0.01 µM
- TGI [46]: < 0.0124 µM
- GI50 [47]: < 0.01 µM
- GI50 [48]: < 0.0142 µM
- TGI [48]: > 51.5 µM
- GI50 [49]: < 0.01 µM
- TGI [49]: 28.7 µM
- GI50 [50]: < 0.01 µM
- TGI [50]: 54.7 µM
- GI50 [51]: < 0.01 µM
- TGI [51]: > 95.7 µM
- GI50 [52]: < 0.01 µM
- TGI [52]: 12 µM
- GI50 [53]: 13.2 µM
- TGI [53]: > 59 µM
- GI50 [54]: 0.0647 µM
- TGI [54]: 14.2 µM
- GI50 [55]: < 0.01 µM
- TGI [55]: 2.02 µM
- GI50 [56]: 1.16 µM
- TGI [56]: 31.8 µM
- GI50 [57]: < 0.01 µM
- TGI [57]: 20.1 µM
- GI50 [58]: 0.0673 µM
- TGI [58]: 45.3 µM

SMILES: CCCCCCCCCCCCCOC(=O)c1c(C)[nH]c(/C=C2\N=C(c3ccc[nH]3)C=C2OC)c1C
- GI50 [1]: 0.161 µM
- TGI [1]: 12.7 µM
- GI50 [2]: 0.481 µM
- TGI [2]: 10.8 µM
- GI50 [3]: 0.0419 µM
- TGI [3]: 0.505 µM
- GI50 [4]: 0.139 µM
- TGI [4]: 12.5 µM
- GI50 [5]: 0.237 µM
- TGI [5]: 36.7 µM
- GI50 [6]: 0.0336 µM
- GI50 [7]: 0.0303 µM
- TGI [7]: > 100 µM
- GI50 [8]: 0.0583 µM
- TGI [8]: > 100 µM
- GI50 [9]: 0.0427 µM
- TGI [9]: > 78.9 µM
- GI50 [11]: 0.0307 µM
- TGI [11]: > 44.4 µM
- GI50 [12]: < 0.0122 µM
- GI50 [13]: 0.0262 µM
- GI50 [14]: 0.0182 µM
- GI50 [15]: 0.801 µM
- TGI [15]: 14.2 µM
- GI50 [16]: 0.0698 µM
- TGI [16]: 0.497 µM
- GI50 [17]: 0.0853 µM
- TGI [17]: 5.47 µM
- GI50 [18]: < 0.0126 µM
- TGI [18]: > 100 µM
- GI50 [19]: 0.122 µM
- TGI [19]: 30.1 µM
- GI50 [20]: 0.0392 µM
- TGI [20]: > 100 µM
- GI50 [21]: < 0.0167 µM
- TGI [21]: > 100 µM
- TGI [22]: 0.0223 µM
- GI50 [23]: 0.0178 µM
- TGI [23]: 0.0461 µM
- GI50 [24]: 2.6 µM
- TGI [24]: > 100 µM
- GI50 [25]: 0.0248 µM
- TGI [25]: > 100 µM
- GI50 [26]: < 0.0314 µM
- GI50 [27]: 0.0411 µM
- TGI [27]: > 100 µM
- GI50 [28]: 0.0807 µM
- TGI [28]: > 100 µM
- GI50 [29]: 1.02 µM
- TGI [29]: > 57.4 µM
- GI50 [30]: 0.244 µM
- TGI [30]: 31.4 µM
- GI50 [31]: < 0.017 µM
- TGI [31]: > 100 µM
- GI50 [32]: 0.215 µM
- TGI [32]: > 64.3 µM
- GI50 [33]: 0.116 µM
- TGI [33]: > 100 µM
- GI50 [34]: 0.227 µM
- TGI [34]: 15.5 µM
- GI50 [35]: 0.425 µM
- TGI [35]: > 100 µM
- GI50 [36]: 0.0929 µM
- TGI [36]: > 100 µM
- GI50 [37]: 0.0454 µM
- GI50 [38]: 0.02 µM
- TGI [38]: > 100 µM
- GI50 [39]: 0.0498 µM
- TGI [39]: > 100 µM
- GI50 [40]: 0.465 µM
- TGI [40]: 10.5 µM
- GI50 [41]: 0.109 µM
- TGI [41]: > 59 µM
- GI50 [42]: 1.75 µM
- TGI [42]: 37.7 µM
- GI50 [43]: 0.182 µM
- TGI [43]: > 26.9 µM
- GI50 [44]: 0.0294 µM
- TGI [44]: 0.157 µM
- GI50 [45]: 0.994 µM
- TGI [45]: > 52.6 µM
- GI50 [46]: 0.0194 µM
- TGI [46]: 0.0911 µM
- GI50 [47]: 2.8 µM
- TGI [47]: 37.1 µM
- GI50 [48]: 0.156 µM
- TGI [48]: > 100 µM
- GI50 [49]: 5.37 µM
- TGI [49]: > 87.6 µM
- GI50 [50]: 0.919 µM
- TGI [50]: 10.9 µM
- GI50 [51]: < 0.0118 µM
- TGI [51]: 0.145 µM
- GI50 [52]: 0.0204 µM
- TGI [52]: > 37.1 µM
- GI50 [53]: 0.0583 µM
- TGI [53]: > 43.4 µM
- GI50 [54]: 0.174 µM
- TGI [54]: 20 µM
- GI50 [55]: 0.0764 µM
- TGI [55]: 17.7 µM
- GI50 [56]: 0.588 µM
- TGI [56]: > 100 µM
- GI50 [57]: 0.0329 µM
- TGI [57]: 0.139 µM
- GI50 [58]: 0.103 µM
- TGI [58]: 0.443 µM
